Where a name gives a salt, the structure may show the parent alone.
What was measured:
[1] = tested on: TetM S30 extract, derivative of E. coli MRE600 containing the tetM determinant; assay: E. coli in vitro transcription and protein translation, 35S-methionine incorporation (Table VIII)
[2] = tested on: Ps. acruginosa ATCC 27853; assay: MIC, agar dilution (Table IA); type: cell-based; details: unit assumed
[3] = tested on: Clostridium spp.; type: cell-based; details: [9] tested
[4] = tested on: S. aureus IVES 1983 (meth. resistant); assay: MIC, agar dilution; type: cell-based; details: S. aureus IVES 1983; Table IA; unit assumed
[5] = tested on: E. coli J3272 Tet sens.; assay: MIC, agar dilution (Table IA); type: cell-based; details: unit assumed
[6] = tested on: Enterococcus faecium; assay: MIC against clinical isolates (Table V, A and O); type: cell-based; details: Enterococcus faecium clinical isolates, (11) tested
[7] = tested on: E. coli UBMS 88-2 (Sensitive); assay: MIC, agar dilution; type: cell-based; details: Escherichia coli; E. coli UBMS 88-2 (Sensitive); read-out: MIC
[8] = tested on: S. aureus UBMS 90-2; assay: In vivo antibacterial evaluation, acute lethal infection in mice; details: Staphylococcus aureus, UBMS902, sc, read-out: ED50, median effective dose protecting 50% of the infected mice; mice infected with S. aureus UBMS 90-2 (tetM), single subcutaneous dosing
Excerpt: In Vivo Antibacterial Evaluation (Table VII)

[9] = tested on: E. faecalis UBMS 90-6 (tetM); assay: MIC, agar dilution; type: cell-based; details: Enterococcus faecalis

Row | Compound | % INHIBITION TetM S30 ([1]; 0.03 mg/ml) [%] | % INHIBITION TetM S30 ([1]; 0.06 mg/ml) [%] | % INHIBITION TetM S30 ([1]; 0.5 mg/ml) [%] | % INHIBITION TetM S30 ([1]; 1.0 mg/ml) [%] | Antibacterial activity (MIC) [2] [µg/mL] | MIC (range over isolates) [3] [µg/mL] | Antibacterial activity (MIC) [4] [µg/mL] | Antibacterial activity (MIC) [5] [µg/mL] | MIC Range [6] [µg/mL] | MIC50 ([6]; read-out: MIC50) [µg/mL] | MIC90 ([6]; read-out: MIC90) [µg/mL] | MIC [7] [µg/mL] | ED50 [8] [mg/kg] | MIC [9] [µg/mL]
1 | CN(C)CC(=O)Nc1cc(N(C)C)c2c(c1O)C(=O)C1=C(O)[C@]3(O)C(=O)C(C(N)=O)=C(O)[C@@H](N(C)C)C3CC1C2.Cl.Cl (stereo partly drawn) [KK, [4S-(4alpha,12aalpha)]-4,7-Bis(dimethylamino)-9-[[(dimethylamino)acetyl]amino]-1,4,4a,5,5a,6,11,12a-octahydro-3,10,12,12a-tetrahydroxy-1,11-dioxo-2-naphthacenecarboxamide dihydrochloride] | 75 | 89 | 96 | 95 | 4 | 0.015 to 0.12 | 1 | 0.12 |  |  |  |  |  | 
2 | CN(C)c1ccc(O)c2c1C[C@H]1C[C@H]3[C@H](N(C)C)C(O)=C(C(N)=O)C(=O)[C@@]3(O)C(O)=C1C2=O [Compound O, 7-(Dimethylamino)-6-demethyl-6-deoxytetracycline hydrochloride (minocycline hydrochloride), reference compound] |  |  |  |  |  |  |  |  | <0.015 to 16.00 | 8 | 16 | 0.5 | 3 | 8
